Reference: patent publication US12479818B2, “Treatment of fibrosis with IRE1 small molecule inhibitors” (Cornell University, priority 2019, dated 2025)

Target: IRE1a (Homo sapiens, UniProt O75460)
Test: IRE1a Endoribonuclease Nanoluciferase Assay (XBP1 luciferase reporter in 293T cells)
Type: cell-based
Parameters: endogenous in cells; host or cells: 293T
Details: XBP1 nanoluciferase reporter in 293T cells, ER stressor; tested as the salt named
Protocol: Compounds disclosed herein were assessed for disruption of IRE1 signaling using a IRE1a Endoribonuclease Nanoluciferase Assay. […] About 24 hours later, the cells were transfected with Effectene. In a 15 mL tube, the following was added: 2 ug XBP1 luciferase reporter plasmid (PGK-Luc2-P2A-XBP1u-Nanoluciferase-PEST); 300 ul EC buffer; and 16 ul Enhancer, followed by incubation at room temp for 5 minutes. […] 2.6 mL cDMEM media was added. Old media was aspirated from the cells, followed by addition of 7 mL fresh media. Full transfection mixture was added dropwise to cells. Cells were incubated for 6 hours, followed by trypsinization, centrifugation and resuspension in 11 mL fresh cDMEM media. 100 μL of cells were plated per a well in a 96 well plate. A day later, ER stressors of choice +/− inhibitors were added. To harvest, media was aspirated from cells completely, then 50 uL 1× passive lysis buffer (Promega: E1941) was added per well and put on shaker (300 rpm) for 30 minutes at room temperature. […] 15 uL OneGlo (nanoluciferase kit, Promega N1630) was added. Plates were spun down, placed on shaker (300 rpm) for 10 minutes. Plates were read on luminometer, 1000 ms integration time per well. 15 uL Stop and Glo (nanoluciferase kit) was added. Plates were spun down, placed on shaker (300 rpm) for 10 minutes. Plates were read on luminometer, 1000 ms second integration time per well.

IRE1a, sequence (O75460 19-977): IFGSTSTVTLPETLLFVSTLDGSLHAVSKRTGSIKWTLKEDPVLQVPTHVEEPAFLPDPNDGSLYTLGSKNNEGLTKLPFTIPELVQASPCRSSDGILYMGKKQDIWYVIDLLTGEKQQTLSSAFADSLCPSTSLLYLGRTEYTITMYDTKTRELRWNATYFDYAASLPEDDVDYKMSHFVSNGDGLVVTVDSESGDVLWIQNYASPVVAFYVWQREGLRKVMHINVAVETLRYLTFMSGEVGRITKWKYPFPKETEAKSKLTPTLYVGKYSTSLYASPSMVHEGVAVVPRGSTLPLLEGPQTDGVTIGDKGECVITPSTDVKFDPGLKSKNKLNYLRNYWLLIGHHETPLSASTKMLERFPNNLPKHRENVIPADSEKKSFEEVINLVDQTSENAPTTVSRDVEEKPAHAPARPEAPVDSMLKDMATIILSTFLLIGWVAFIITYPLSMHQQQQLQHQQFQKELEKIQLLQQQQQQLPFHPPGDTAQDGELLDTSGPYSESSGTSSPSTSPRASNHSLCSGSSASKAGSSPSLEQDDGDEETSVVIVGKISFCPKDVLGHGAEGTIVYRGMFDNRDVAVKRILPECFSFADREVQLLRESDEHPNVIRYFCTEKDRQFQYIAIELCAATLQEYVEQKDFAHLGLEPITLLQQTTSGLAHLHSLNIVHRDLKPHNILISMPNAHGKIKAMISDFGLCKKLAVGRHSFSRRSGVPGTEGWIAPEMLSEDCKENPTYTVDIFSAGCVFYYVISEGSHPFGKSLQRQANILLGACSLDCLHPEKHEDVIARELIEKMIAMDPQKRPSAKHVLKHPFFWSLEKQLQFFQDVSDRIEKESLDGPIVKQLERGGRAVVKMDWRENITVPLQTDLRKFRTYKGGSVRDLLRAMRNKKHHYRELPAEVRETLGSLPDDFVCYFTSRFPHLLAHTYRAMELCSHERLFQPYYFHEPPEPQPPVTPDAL

EC50, 50 to 100 nM:
Cc1nc(NS(=O)(=O)c2ccccc2Cl)ncc1-c1ccc2nc(N[C@H]3CC[C@H](N)CC3)ncc2c1 [Compound 68, N-(5-(2-(((1r,4r)-4-aminocyclohexyl)amino)quinazolin-6-yl)-4-methylpyrimidin-2-yl)-2-chlorobenzene-sulfonamide]
CCc1cc(-c2ccc(NS(=O)(=O)c3ccccc3Cl)c(F)c2)cc2cnc(N[C@H]3CC4C[C@H](N)CC4C3)nc12 (stereo partly drawn) [Compound 83, N-(4-(2-(((2r,5r)-5-aminoocta-hydropentalen-2-yl)amino)-8-ethylquinazolin-6-yl)-2-fluorophenyl)-2-chlorobenzene-sulfonamide]
NC12CCC(Nc3ncc4cc(-c5ccc(NS(=O)(=O)c6ccccc6Cl)c(F)c5)ccc4n3)(CC1)C2 [Compound 86, N-(4-(2-((4-aminobicyclo[2.2. 1]heptan-1-yl)amino)quinazolin-6-yl)-2-fluorophenyl)-2-chlorobenzene-sulfonamide]

EC50, < 5 nM:
CCc1cc(-c2ccc(NS(=O)(=O)c3ccccc3Cl)c(F)c2)cc2cnc(N[C@H]3CC[C@H](N(C)C)CC3)nc12 [Compound 69]
CCc1cc(-c2ccc(NS(=O)(=O)c3ccccc3Cl)c(F)c2C)cc2cnc(N[C@H]3CC[C@H](N)CC3)nc12 [Compound 71, N-(4-(2-(((1r,4r)-4-aminocyclohexyl)amino)-8-ethylquinazolin-6-yl)-2-flouro-3-methylphenyl)-2-chlorobenzene-sulfonamide]
CCc1cc(-c2ccc(NS(=O)(=O)c3ccccc3Cl)c(F)c2)cc2cnc(N[C@@H]3CC[C@@H](N)[C@H](C)C3)nc12 [Compound 74]
CCc1cc(-c2ccc(NS(=O)(=O)c3ccccc3Cl)c(F)c2)cc2cnc(N[C@@H]3CC[C@@H](N)C3)nc12 [Compound 78]
NC12CCC(Nc3ncc4cc(-c5ccc(NS(=O)(=O)c6ccccc6Cl)c(F)c5)ccc4n3)(CC1)CC2 [Compound 81, N-(4-(2-((4-aminobicyclo[2.2. 2]octan-1-yl)amino)quinazolin-6-yl)-2-fluorophenyl)-2-chlorobenzene-sulfonamide]
CCc1cc(-c2ccc(NS(=O)(=O)c3ccccc3Cl)c(F)c2)cc2cnc(NC34CCC(N)(CC3)CC4)nc12 [Compound 87, N-(4-(2-((4-aminobicyclo[2.2. 2]octan-1-yl)-amino)-8-ethylquinazolin-6-yl)-2-fluorophenyl)-2-chlorobenzene-sulfonamide]
CCc1cc(-c2ccc(NS(=O)(=O)c3ccccc3Cl)c(F)c2)cc2cnc(N[C@H]3CC[C@H](N4CCCC4)CC3)nc12 [Compound 88, 2-chloro-N-(4-(8-ethyl-2-(((lr,4r)-4-(pyrrolidin-1-yl)cyclohexyl)amino)quinazolin-6-yl)-2-fluorophenyl) benzene-sulfonamide]
CCc1cc(-c2cnc(NS(=O)(=O)c3ccccc3Cl)c(F)c2)cc2cnc(N[C@H]3CC[C@H](N(C)C)CC3)nc12 [Compound 95, 2-chloro-N-(5-(2-(((1r,4r)-4-(dimethylamino)cyclohexyl)amino)-8-ethylquinazolin-6-yl)-3-fluoropyridin-2-yl)benzenesulfonamide]
CCc1cc(-c2cc(F)c(NS(=O)(=O)c3ccccc3Cl)nc2C)cc2cnc(N[C@H]3CC[C@H](N(C)C)CC3)nc12 [Compound 97, 2-chloro-N-(5-(2-(((1r,4r)-4-(dimethylamino)cyclohexyl)amino)-8-ethylquinazolin-6-yl)-3-fluoro-6-methylpyridin-2-yl)benzenesulfonamide]
CCc1cc(-c2ncc(NS(=O)(=O)c3ccccc3Cl)nc2OC)cc2cnc(N[C@H]3CC[C@H](N)CC3)nc12 [Compound 98, N-(5-(2-(((1r,4)-4-aminocyclohexyl)amino)-8-ethylquinazolin-6-yl)-6-methoxypyrazin-2-yl)-2-chlorobenzenesulfonamide]
CCc1cc(-c2ccc(NS(=O)(=O)c3ccccc3Cl)nc2OC)cc2cnc(N[C@H]3CC[C@H](N(C)C)CC3)nc12 [Compound 99, 2-chloro-N-(5-(2-(((1r,4r)-4-(dimethylamino)cyclohexyl)amino)-8-ethylquinazolin-6-yl)-6-methoxypyridin-2-yl)benzenesulfonamide]
COc1nc(NS(=O)(=O)c2ccccc2Cl)ccc1-c1cc2cnc(N[C@H]3CC[C@H](N(C)C)CC3)nc2cc1C [Compound 108, 2-chloro-N-(5-(2-(((1r,4r)-4-(dimethylamino)cyclohexyl)amino)-7-methylquinazolin-6-yl)-6-methoxypyridin-2-yl)benzenesulfonamide]
CCc1cc(-c2ccc(NS(=O)(=O)c3ccccc3Cl)nc2OC)cc2cnc(N[C@H]3CC[C@H](NC)CC3)nc12 [Compound 116, 2-chloro-N-(5-(8-ethyl-2-(((1r,4r)-4-(methylamino)cyclohexyl)amino)quinazolin-6-yl)-6-methoxypyridin-2-yl)benzenesulfonamide]
CCc1nc(NS(=O)(=O)c2ccccc2Cl)ccc1-c1cc(CC)c2nc(N[C@H]3CC[C@H](N(C)C)CC3)ncc2c1 [Compound 117, 2-chloro-N-(5-(2-(((1r,4r)-4-(dimethylamino)cyclohexyl)amino)-8-ethylquinazolin-6-yl)-6-ethylpyridin-2-yl)benzenesulfonamide]
CCc1cc(-c2ccc(NS(=O)(=O)c3ccccc3C)nc2OC)cc2cnc(NC3CCC(NC)CC3)nc12 (stereo not drawn) [Compound 118, N-(5-(8-ethyl-2-(((1r,4r)-4-(methylamino)cyclohexyl)amino)quinazolin-6-yl)-6-methoxypyridin-2-yl)-2-methylbenzenesulfonamide]
CCc1cc(-c2ccc(NS(=O)(=O)c3ccccc3C)nc2OC)cc2cnc(N[C@H]3CC[C@H](N(C)C)CC3)nc12 [Compound 119, N-(5-(2-(((1r,4r)-4-(dimethylamino)cyclohexyl)amino)-8-ethylquinazolin-6-yl)-6-methoxypyridin-2-yl)-2-methylbenzenesulfonamide]

EC50, 5 to 50 nM:
O=S(=O)(Nc1ccc(-c2ccc3nc(N[C@H]4CCCNC4)ncc3c2)cc1F)c1ccccc1Cl [Compound 76, (S)-2-chloro-N-(2-fluoro-4-(2-(piperidin-3-ylamino)quinazolin-6-yl)phenyl) benzene-sulfonamide]
N[C@@H]1CC[C@@H](Nc2ncc3cc(-c4ccc(NS(=O)(=O)c5ccccc5Cl)c(F)c4)ccc3n2)C1 [Compound 77, N-(4-(2-(((1R,3R)-3-aminocyclopentyl)amino)quinazolin-6-yl)-2-fluorophenyl)-2-chlorobenzene-sulfonamide]
CCc1cc(-c2ccc(NS(=O)(=O)c3ccccc3Cl)c(F)c2)cc2cnc(N[C@@H]3CC[C@H](N)C3)nc12 [Compound 79, N-(4-(2-(((1R,3S)-3-aminocyclopentyl)amino)-8-ethylquinazolin-6-yl)-2-fluorophenyl)-2-chlorobenzene-sulfonamide]
CCc1cc(-c2ccc(NS(=O)(=O)c3ccccc3Cl)c(F)c2)cc2cnc(N[C@H]3CC4C[C@H](N)CC4C3)nc12 (stereo partly drawn) [Compound 82]
CCc1cc(-c2ccc(NS(=O)(=O)c3ccccc3Cl)c(F)c2)cc2cnc(N[C@H]3CC4C[C@@H](N)CC4C3)nc12 (stereo partly drawn) [Compound 84, N-(4-(2-(((2s,5s)-5-aminoocta-hydropentalen-2-yl)amino)-8-ethylquinazolin-6-yl)-2-fluorophenyl)-2-chlorobenzene-sulfonamide]
Cc1cc2nc(N[C@H]3CC[C@H](N)CC3)ncc2cc1-c1ccc(NS(=O)(=O)c2ccccc2Cl)c(F)c1 [Compound 90, N-(4-(2-(((1r,4r)-4-aminocyclohexyl)amino)-7-methylquinazolin-6-yl)-2-fluorophenyl)-2-chlorobenzene-sulfonamide]

EC50, 100 to 10000 nM:
CCc1cc(-c2ccc(NS(=O)(=O)c3ccccc3Cl)c(F)c2)cc2cnc(N[C@@H]3CCC[C@H](N)C3)nc12 [Compound 72, N-(4-(2-(((1R,3S)-3-aminocyclohexyl)amino)-8-ethylquinazolin-6-yl)-2-fluorophenyl)-2-chlorobenzene-sulfonamide]
N[C@H]1CCC[C@@H](Nc2ncc3cc(-c4ccc(NS(=O)(=O)c5ccccc5Cl)c(F)c4)ccc3n2)C1 [Compound 75]
N[C@H]1CC2C[C@@H](Nc3ncc4cc(-c5ccc(NS(=O)(=O)c6ccccc6Cl)c(F)c5)ccc4n3)CC2C1 (stereo partly drawn) [Compound 85, N-(4-(2-(((2s,5s)-5-aminoocta-hydropentalen-2-yl)amino)quinazolin-6-yl)-2-fluorophenyl)-2-chlorobenzene-sulfonamide]
N[C@H]1CC[C@H](Nc2ncc3cc(-c4nnc(NS(=O)(=O)c5ccccc5Cl)s4)ccc3n2)CC1 [Compound 89, N-(5-(2-(((lr,4r)-4-aminocyclohexyl)amino)quinazolin-6-yl)-1,3,4-thiadiazol-2-yl)-2-chlorobenzene-sulfonamide]
CCc1cc(-c2cnc(NS(=O)(=O)c3ccccc3Cl)cc2OC)cc2cnc(N[C@H]3CC[C@H](N)CC3)nc12 [Compound 92, N-(5-(2-(((1r,4r)-4-aminocyclohexyl)amino)-8-ethylquinazolin-6-yl)-4-methoxypyridin-2-yl)-2-chlorobenzene-sulfonamide]
